Common to all, as to format: cell-based
One experiment relates to Pythium splendens. Description: In vitro test on activity against Pythium splendens. Conditions: Globisporangium splendens, read-out: growth inhibition of the fungus.
Another experiment has as its system Fusarium culmorum. In words: In vitro test on activity against Fusarium culmorum. Conditions: read-out: growth inhibition of the fungus.
Another experiment relates to Leptosphaeria nodorum. Description: In vitro test on activity against Leptosphaeria nodorum. Conditions: Parastagonospora nodorum, read-out: growth inhibition of the fungus. How it is done:
The compound to be tested is processed in a culture medium consisting of 1% by weight of glucose, 0.2% by weight of a yeast extract (marmite), 0.5% by weight of a protein (pepton), 2.5% by weight of agar-agar, and 95.8% by weight of water, in petri dishes in concentrations of 3 and 10 ppm. The petri dishes are inoculated with the plant-pathogenic fungus Pyrenophora graminea and then kept at a temperature of 20° C. After 48 hours the growth-inhibiting activity of the compounds is determined visually. For comparison, the known substance (b) (see EXAMPLE XV) is also tested.
Compounds according to the invention are tested on i Leptosphaeria nodorum in the same manner as described in EXAMPLE XIX.

Take `C[S+]([O-])c1sc(C=O)c(-c2ccc(Cl)cc2)c1C#N` (stereo not drawn) [(26), 2-methylsulphinyl-3-cyano-4-(4-chlorophenyl)-5-formylthiophene]: the inhibition (commonly the share of the control response that was lost under treatment) at 10 ppm in the experiment on Pythium splendens is not below 95%.

On to `C[S+]([O-])c1sc(S(C)(=O)=O)cc1C#N` (stereo not drawn) [(60), 2-methylsulphinyl-3-cyano-5-methylsulphonylthiophene], for which the inhibition at 10 ppm in the experiment on Pythium splendens is not below 95%. With `CC[S+]([O-])c1sc(C#N)c(-n2cncn2)c1C#N` (stereo not drawn) [(68), 2-ethylsulphinyl-3,5-dicyano-4-(1,2,4-triazol-1-yl)thiophene], in the experiment on Pythium splendens, the inhibition at 10 ppm was not below 95%. As for `CC[S+]([O-])c1sc(C=O)c(Cl)c1C=O` (stereo not drawn) [(83), 2-ethylsulphinyl-3,5-diformyl-4-chlorothiophene], the inhibition at 10 ppm in the experiment on Pythium splendens is not below 95%. Take `CCC[S+]([O-])c1sc(C(C)=O)c(C)c1C#N` (stereo not drawn) [(62), 2-n-propylsulphinyl-3-cyano-4-methyl-5-acetylthiophene]: the inhibition at 30 ppm with Fusarium culmorum was not below 75%. Regarding `CCC[S+]([O-])c1sc(C(=O)c2ccccc2)c(OC)c1C#N` (stereo not drawn) [(75), 2-n-propylsulphinyl-3-cyano-4-methoxy-5-benzoylthiophene], the inhibition at 30 ppm in the experiment on Fusarium culmorum is not below 75%; in the experiment on Leptosphaeria nodorum, not below 85%. `CC[S+]([O-])c1sc(C=O)c(N)c1C#N` (stereo not drawn) [(49), 2-ethylsulphinyl-3-cyano-4-amino-5-formylthiophene]: in the experiment with Pythium splendens, the inhibition at 10 ppm is not below 95%.

With `C[S+]([O-])c1sc(C=O)cc1C#N` (stereo not drawn) [(28), 2-methylsulphinyl-3-cyano-5-formylthiophene], in the experiment with Pythium splendens, the inhibition at 10 ppm was not below 95%.

For `CCS(=O)(=O)c1sc(C(C)=O)c(Cl)c1C#N` [(18), 2-ethylsulphonyl-3-cyano-4-chloro-5-acetylthiophene], the inhibition at 10 ppm with Pythium splendens is not below 95%. For `CC[S+]([O-])c1sc(C(=O)c2ccccc2)c(N)c1C#N` (stereo not drawn) [(65), 2-ethylsulphinyl-3-cyano-4-amino-5-benzoylthiophene], the inhibition at 30 ppm in the experiment with Fusarium culmorum was not below 75%; in the experiment on Leptosphaeria nodorum, not below 85%. For the compound `CCS(=O)(=O)c1sc(S(C)(=O)=O)c(Cl)c1C#N` [(84), 2-ethylsulphonyl-3-cyano-4-chloro-5-methylsulphonylthiophene], the inhibition at 10 ppm with Pythium splendens was not below 95%. Turning to `CC[S+]([O-])c1sc(C(=O)c2ccccc2)c(C)c1C#N` (stereo not drawn) [(91), 2-ethylsulphinyl-3-cyano-4-methyl-5-benzoylthiophene], in the experiment with Fusarium culmorum, the inhibition at 30 ppm is not below 75%. With `CCOC(=O)c1sc([S+](C)[O-])c(C#N)c1N` (stereo not drawn) [(29), 2-methylsulphinyl-3-cyano-4-amino-5-ethoxycarbonylthiophene], the inhibition at 30 ppm in the experiment with Fusarium culmorum was not below 75%. `CC[S+]([O-])c1sc(S(C)(=O)=O)c(Cl)c1C#N` (stereo not drawn) [(77), 2-ethylsulphinyl-3-cyano-4-chloro-5-methylsulphonyl-thiophene]: in the experiment with Pythium splendens, the inhibition at 10 ppm was not below 95%.

With `CC[S+]([O-])c1sc(C(=O)c2ccc(Cl)cc2)c(OC)c1C#N` (stereo not drawn) [(76), 2-ethylsulphinyl-3-cyano-4-methoxy-5-(4-chlorobenzoyl)thiophene], the inhibition at 30 ppm with Leptosphaeria nodorum is not below 85%. With `C[S+]([O-])c1sc(C=O)c(N)c1C#N` (stereo not drawn) [(48), 2-methylsulphinyl-3-cyano-4-amino-5-formylthiophene], the inhibition at 10 ppm in the experiment with Pythium splendens was not below 95%. As for `CC[S+]([O-])c1sc(C#N)c(C)c1C#N` (stereo not drawn) [(63), 2-ethylsulphinyl-3,5-dicyano-4-methylthiophene], the inhibition at 30 ppm in the experiment on Leptosphaeria nodorum is not below 85%.

Regarding `CC[S+]([O-])c1sc(C#N)c(-n2ccnc2)c1C#N` (stereo not drawn) [(69), 2-ethylsulphinyl-3,5-dicyano-4-(imidazol-1-yl)thiophene], the inhibition at 10 ppm in the experiment on Pythium splendens was not below 95%.

On to `CC[S+]([O-])c1sc(C(C)=O)c(NC)c1C#N` (stereo not drawn) [(17), 2-ethylsulphinyl-3-cyano-4-N-methylamino-5-acetylthiophene], for which the inhibition at 10 ppm in the experiment with Pythium splendens was not below 95%. In the experiment with Leptosphaeria nodorum, the inhibition at 30 ppm was not below 85%. For the compound `CCCC[S+]([O-])c1sc(C(C)=O)cc1C#N` (stereo not drawn) [(44), 2-n-butylsulphinyl-3-cyano-5-acetylthiophene], the inhibition at 30 ppm in the experiment on Fusarium culmorum was not below 75%; in the experiment with Leptosphaeria nodorum, not below 85%. With `CCOC(=O)c1sc([S+]([O-])CC)c(C#N)c1Cl` (stereo not drawn) [(37), 2-ethylsulphinyl 3-cyano-4-chloro-5-ethoxycarbonylthiophene], the inhibition at 30 ppm is not below 75% in the experiment on Fusarium culmorum and not below 85% in the experiment on Leptosphaeria nodorum. On to `CC[S+]([O-])c1sc(C#N)c(N(C)C(C)=O)c1C#N` (stereo not drawn) [(54), 2-ethylsulphinyl-3,5-dicyano-4-(N-acetyl-N-methylamino)thiophene], for which the inhibition at 10 ppm with Pythium splendens was not below 95%.

`CCS(=O)(=O)c1sc(C#N)cc1C#N` [(16), 2-ethylsulphonyl-3,5-dicyanothiophene]: in the experiment on Pythium splendens, the inhibition at 10 ppm is not below 95%. Take `CC[S+]([O-])c1sc(C(C)=O)c(-c2ccccc2)c1C#N` (stereo not drawn) [(87), 2-ethylsulphinyl-3-cyano-4-phenyl-5-acetylthiophene]: the inhibition at 30 ppm in the experiment with Fusarium culmorum was not below 75%; in the experiment with Leptosphaeria nodorum, not below 85%. With `CCS(=O)(=O)c1sc(C#N)c(Cl)c1C#N` [(22), 2-ethylsulphonyl-3,5 dicyano-4-chlorothiophene], in the experiment on Fusarium culmorum, the inhibition at 30 ppm was not below 75%. Moreover, the inhibition at 10 ppm in the experiment on Pythium splendens is not below 95%. Consider `CCC[S+]([O-])c1sc(C#N)c(OC)c1C#N` (stereo not drawn) [(55), 2-n-propylsulphinyl-3,5-dicyano-4-methoxythiophene], for which the inhibition at 30 ppm with Fusarium culmorum was not below 75%. Besides, the inhibition at 10 ppm in the experiment on Pythium splendens is not below 95%.

In the case of `CC[S+]([O-])c1sc2cc(Cl)ccc2c1C#N` (stereo not drawn) [(20), 2-ethylsulphinyl-3-cyano 6-chloro-benzothiophene], the inhibition at 30 ppm in the experiment with Leptosphaeria nodorum was not below 85%. Turning to `CC(=O)COc1c(C(C)=O)sc([S+](C)[O-])c1C#N` (stereo not drawn) [(59), 2-methylsulphinyl-3-cyano-4-acetylmethoxy-5-acetylthiophene], in the experiment with Pythium splendens, the inhibition at 10 ppm is not below 95%. As to `CCCCCC[S+]([O-])c1sc(C#N)c(N)c1C#N` (stereo not drawn) [(38), 2-n-hexylsulphinyl-3,5-dicyano-4-aminothiophene], the inhibition at 30 ppm with Fusarium culmorum was not below 75%.

On to `CC[S+]([O-])c1sc(C=O)c(Cl)c1C#N` (stereo not drawn) [(50), 2-ethylsulphinyl-3-cyano-4-chloro-5-formylthiophene], for which the inhibition at 10 ppm in the experiment with Pythium splendens is not below 95%.

For `CC[S+]([O-])c1sc(C(=O)c2ccccc2)cc1C#N` (stereo not drawn) [(64), 2-ethylsulphinyl-3-cyano-5-benzoylthiophene], the figures for the inhibition at 30 ppm in the experiment on Fusarium culmorum and with Leptosphaeria nodorum were not below 75% and not below 85%, respectively. Turning to `CCS(=O)(=O)c1sc(C(C)=O)cc1C#N` [(21), 2-ethylsulphonyl-3-cyano-5-acetylthiophene], the inhibition at 10 ppm in the experiment with Pythium splendens is not below 95%. For the compound `CS/C(=C(\C#N)c1ccccc1)[S+](C)[O-]` (stereo not drawn) [(93), α-cyano-β-methylsulphinyl)-β-methylthio-styrene, E-isomer], the inhibition at 30 ppm in the experiment with Fusarium culmorum is not below 75%. For the same compound, in the experiment on Pythium splendens, the inhibition at 10 ppm was not below 95%. For `CC[S+]([O-])c1sc(C#N)c(N)c1C#N` (stereo not drawn) [(46), 2-ethylsulphinyl-3,5-dicyano-4-aminothiophene], the inhibition at 10 ppm with Pythium splendens is not below 95%. As to `CCC[S+]([O-])c1sc(C(=O)c2ccc(Cl)cc2)cc1C#N` (stereo not drawn) [(73), 2-n-propylsulphinyl-3-cyano-5-(4-chlorobenzolyl)thiophene], the inhibition at 30 ppm with Fusarium culmorum was not below 75%; with Leptosphaeria nodorum, not below 85%. With `CCC[S+]([O-])c1sc(C(C)=O)c(Cl)c1C#N` (stereo not drawn) [(61), 2-n-propylsulphinyl-3-cyano-4-cloro-5-acetylthiophene], the inhibition at 30 ppm with Fusarium culmorum is not below 75%. For the same compound, the inhibition at 10 ppm with Pythium splendens was not below 95%.

Turning to `CC[S+]([O-])c1sc(C#N)c(-c2ccccc2)c1C#N` (stereo not drawn) [(71), 2-ethylsulphinyl-3,5-dicyano-4-phenylthiophene], the inhibition at 30 ppm is not below 75% in the experiment with Fusarium culmorum and not below 85% in the experiment with Leptosphaeria nodorum. In the case of `COc1c(C(C)=O)sc([S+](C)[O-])c1C#N` (stereo not drawn) [(25), 2-methylsulphinyl-3-cyano-4-methoxy-5-acetylthiophene], the inhibition at 10 ppm in the experiment on Pythium splendens was not below 95%. Regarding `CC[S+]([O-])c1sc(C(=O)c2ccccc2)c(Cl)c1C#N` (stereo not drawn) [(92), 2-ethylsulphinyl-3-cyano-4-chloro-5-benzoylthiophene], the inhibition at 30 ppm in the experiment with Fusarium culmorum is not below 75%; in the experiment on Leptosphaeria nodorum, not below 85%. Regarding `CCC[S+]([O-])c1sc(C(C)=O)c(N)c1C#N` (stereo not drawn) [(57), 2-n-propylsulphinyl-3-cyano-4-amino-5-acetylthiophene], the inhibition at 30 ppm in the experiment on Fusarium culmorum was not below 75%. In addition, in the experiment on Pythium splendens, the inhibition at 10 ppm was not below 95%.

`CC[S+]([O-])c1sc(C=O)c(C)c1C#N` (stereo not drawn) [(56), 2-ethylsulphinyl-3-cyano-4-methyl-5-formylthiophene]: in the experiment with Pythium splendens, the inhibition at 10 ppm is not below 95%.

In the case of `C[S+]([O-])c1sc2cccc(Cl)c2c1C#N` (stereo not drawn) [(11), 2-methylsulphinyl-3-cyano-4-chloro-benzothiophene], in the experiment with Fusarium culmorum, the inhibition at 30 ppm was not below 75%. Turning to `C[S+]([O-])c1sc(C=O)cc1C=O` (stereo not drawn) [(70), 2-methylsulphinyl-3,5-diformylthiophene], the inhibition at 10 ppm with Pythium splendens was not below 95%.

For `CCCC[S+]([O-])c1sc(C(=O)c2ccccc2)cc1C#N` (stereo not drawn) [(90), 2-n-butylsulphinyl 3-cyano-5-benzoylthiophene], the inhibition at 30 ppm with Fusarium culmorum was not below 75%. For `CCCC[S+]([O-])c1sc(C(=O)c2ccccc2)c(N)c1C#N` (stereo not drawn) [(88), 2-n-butylsulphinyl-3-cyano-4-amino-5-benzoylthiophene], the inhibition at 30 ppm with Fusarium culmorum was not below 75%; in the experiment on Leptosphaeria nodorum, not below 85%. As to `CCCCCCCC[S+]([O-])c1sc(C#N)cc1C#N` (stereo not drawn) [(81), 2-n-octylsulphinyl-3,5-dicyanothiophene], the inhibition at 30 ppm with Fusarium culmorum is not below 75%. As to `C[S+]([O-])c1sc(C(=O)c2ccccc2)cc1C#N` (stereo not drawn) [(30)], the inhibition at 10 ppm in the experiment with Pythium splendens was not below 95%.

(Values after patent US4994485A, “Thio compounds having fungicidal activity” (Duphar International Research B.V., priority 1986, dated 1991).)
